Assay results from PubChem BioAssay AID1259411 (Chemical Carcinogenesis Research Information System (CCRIS), 2018).
The source made the active and inactive calls. No rule for the calls is given here.

Test system: rodent carcinogenicity bioassays, tumor incidence
Test: CCRIS carcinogenicity studies
How it was run: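 Archive of carcinogenicity, mutagenicity, tumor promotion and tumor inhibition results drawn from journals, NCI reports and other sources, expert-reviewed; covers 1985-2011 and is no longer updated.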

O=CCCCC=O
carcinogen call (Species: MOUSE, Strain/Sex: B6C3F1/FEMALE, Route: INHALATION, Dose: 0, 62.5, 125, 250 PPM 6 HR/D 5 D/WK FOR 104 WK (STUDY DURATION: 104 WK), Dose: 0, 62.5, 125, 250 PPM 6 HR/D 5 D/WK FOR 104 WK (STUDY DURATION: 104 WK)): inactive; negative | carcinogen call (Species: MOUSE, Strain/Sex: B6C3F1/FEMALE, Route: INHALATION, Dose: 0, 100 PPB 6 HR/D 5 D/WK FOR 52 OR 78 WK (STUDY DURATION: 78 WK)): inactive; negative | carcinogen call (Species: MOUSE, Strain/Sex: B6C3F1/MALE, Route: INHALATION, Dose: 0, 62.5, 125, 250 PPM 6 HR/D 5 D/WK FOR 104 WK (STUDY DURATION: 104 WK), Dose: 0, 62.5, 125, 250 PPM 6 HR/D 5 D/WK FOR 104 WK (STUDY DURATION: 104 WK)): inactive; negative | carcinogen call (Species: MOUSE, Strain/Sex: B6C3F1/MALE, Route: INHALATION, Dose: 0, 100 PPB 6 HR/D 5 D/WK FOR 52 OR 78 WK (STUDY DURATION: 78 WK)): inactive; negative | carcinogen call (Species: RAT, Strain/Sex: F344/FEMALE, Route: ORAL, Dose: 0, 50, 250, 1000 PPM IN DRINKING WATER FOR 104 WK (STUDY DURATION: 104 WK), Dose: 0, 50, 250, 1000 PPM IN DRINKING WATER FOR 104 WK (STUDY DURATION: 104 WK)): inactive; negative | carcinogen call (Species: RAT, Strain/Sex: F344/MALE, Route: ORAL, Dose: 0, 50, 250, 1000 PPM IN DRINKING WATER FOR 104 WK (STUDY DURATION: 104 WK), Dose: 0, 50, 250, 1000 PPM IN DRINKING WATER FOR 104 WK (STUDY DURATION: 104 WK)): inactive; negative | carcinogen call (Species: RAT, Strain/Sex: F344/N/FEMALE, Route: INHALATION, Dose: 0, 250, 500, 750 PPM 6 HR/D 5 D/WK FOR 104 WK (STUDY DURATION: 104 WK), Dose: 0, 250, 500, 750 PPM 6 HR/D 5 D/WK FOR 104 WK (STUDY DURATION: 104 WK)): inactive; negative | carcinogen call (Species: RAT, Strain/Sex: F344/N/MALE, Route: INHALATION, Dose: 0, 250, 500, 750 PPM 6 HR/D 5 D/WK FOR 104 WK (STUDY DURATION: 104 WK), Dose: 0, 250, 500, 750 PPM 6 HR/D 5 D/WK FOR 104 WK (STUDY DURATION: 104 WK)): inactive; negative | carcinogen call (Species: Rat, Strain/Sex: Fischer 344/Female (80/Group), Route: Oral, Dose: 0, 50, 250, 1000 ppm (0; 5.5; 25.1; 85.9 mg/kg/d) in drinking water for 104 wk, study duration 104 wk, Dose: 0, 50, 250, 1000 ppm (0; 5.5; 25.1; 85.9 mg/kg/d) in drinking water for 104 wk, study duration 104 wk, Tumor Site: Type of Lesion: Large granular lymphocyte leukemia (24, 41, 41, 53/100 animals)): active; positive | carcinogen call (Species: Rat, Strain/Sex: Fischer 344/Male (80/Group), Route: Oral, Dose: 0, 50, 250, 1000 ppm (0; 3.6; 17.1; 63.9 mg/kg/d) in drinking water for 104 wk, study duration 104 wk, Dose: 0, 50, 250, 1000 ppm (0; 3.6; 17.1; 63.9 mg/kg/d) in drinking water for 104 wk, study duration 104 wk): inactive; negative

CC(O)CN(N=O)C(=O)NCCCl (stereo not given)
carcinogen call (Species: RAT, Strain/Sex: F344/FEMALE, Route: INTRAVESICULAR, Dose: 0, 4.6 MG 2/WK FOR 30 WK (STUDY DURATION: LIFETIME), Tumor Site: Type of Lesion: BLADDER: TUMOR): active; positive | carcinogen call (Species: RAT, Strain/Sex: F344/FEMALE, Route: ORAL, Dose: 0, 46 MG/L IN DRINKING WATER 5 D/WK FOR 30 WK (STUDY DURATION: LIFETIME), Tumor Site: Type of Lesion: BLADDER: TUMOR, THYROID: FOLLICULAR TUMOR): active; positive | carcinogen call (Species: RAT, Strain/Sex: F344/MALE, Route: ORAL, Dose: 0, 46 MG/L IN DRINKING WATER 5 D/WK FOR 30 WK (STUDY DURATION: LIFETIME)): inactive; negative

Oc1ccc2ccccc2c1N=Nc1ccc(N=Nc2ccccc2)cc1
carcinogen call (Species: MOUSE, Strain/Sex: SWISS-WEBSTER/FEMALE, Route: DERMAL, Dose: 0, 1% IN 0.1 ML 0.1% SODIUM LAURYL SULFATE 1/WK FOR 18 MO (STUDY DURATION: 18 MO)): inactive; negative | carcinogen call (Species: MOUSE, Strain/Sex: SWISS-WEBSTER/MALE, Route: DERMAL, Dose: 0, 1% IN 0.1 ML 0.1% SODIUM LAURYL SULFATE 1/WK FOR 18 MO (STUDY DURATION: 18 MO)): inactive; negative

CC(O)c1ccccc1 (stereo not given)
carcinogen call (Species: MOUSE, Strain/Sex: B6C3F1/FEMALE, Route: GAVAGE, Dose: 0, 375, 750 MG/KG IN CORN OIL 5 D/WK FOR 103 WK (STUDY DURATION: 104 WK), Dose: 0, 375, 750 MG/KG IN CORN OIL 5 D/WK FOR 103 WK (STUDY DURATION: 104 WK)): inactive; negative | carcinogen call (Species: MOUSE, Strain/Sex: B6C3F1/MALE, Route: GAVAGE, Dose: 0, 375, 750 MG/KG IN CORN OIL 5 D/WK FOR 103 WK (STUDY DURATION: 104 WK), Dose: 0, 375, 750 MG/KG IN CORN OIL 5 D/WK FOR 103 WK (STUDY DURATION: 104 WK)): inactive; negative | carcinogen call (Species: RAT, Strain/Sex: F344/FEMALE, Route: GAVAGE, Dose: 0, 375, 750 MG/KG IN CORN OIL 5 D/WK FOR 103 WK (STUDY DURATION: 105 WK), Dose: 0, 375, 750 MG/KG IN CORN OIL 5 D/WK FOR 103 WK (STUDY DURATION: 105 WK)): inactive; negative | carcinogen call (Species: RAT, Strain/Sex: F344/MALE, Route: GAVAGE, Dose: 0, 375, 750 MG/KG IN CORN OIL 5 D/WK FOR 103 WK (STUDY DURATION: 105 WK), Dose: 0, 375, 750 MG/KG IN CORN OIL 5 D/WK FOR 103 WK (STUDY DURATION: 105 WK), Tumor Site: Type of Lesion: KIDNEY: TUBULAR CELL ADENOMA, TUBULAR CELL ADENOMA OR ADENOCARCINOMA): active; positive

CC(C)(c1ccc(OCC2CO2)cc1)c1ccc(OCC2CO2)cc1 (stereo not given)
carcinogen call (Species: MOUSE, Strain/Sex: CF1/FEMALE, Route: DERMAL, Dose: 0, 1, 10% IN ACETONE 2D/WK FOR 2 YR (STUDY DURATION: 2 YR), Dose: 0, 1, 10% IN ACETONE 2D/WK FOR 2 YR (STUDY DURATION: 2 YR)): inactive; negative | carcinogen call (Species: MOUSE, Strain/Sex: CF1/MALE, Route: DERMAL, Dose: 0, 1, 10% IN ACETONE 2D/WK FOR 2 YR (STUDY DURATION: 2 YR), Dose: 0, 1, 10% IN ACETONE 2D/WK FOR 2 YR (STUDY DURATION: 2 YR)): inactive; negative | carcinogen call (Species: MOUSE, Strain/Sex: CF-1/FEMALE, Route: DERMAL, Dose: 0, 1, 10% IN ACETONE (TOTAL DOSE 0.2 ML) 2/WK APPLIED TO DORSAL SKIN FOR DURATION OF STUDY (STUDY DURATION: 2 YR), Dose: 0, 1, 10% IN ACETONE (TOTAL DOSE 0.2 ML) 2/WK APPLIED TO DORSAL SKIN FOR DURATION OF STUDY (STUDY DURATION: 2 YR)): inactive; negative | carcinogen call (Species: MOUSE, Strain/Sex: CF-1/MALE, Route: DERMAL, Dose: 0, 1, 10% IN ACETONE (TOTAL DOSE 0.2 ML) 2/WK APPLIED TO DORSAL SKIN FOR DURATION OF STUDY (STUDY DURATION: 2 YR), Dose: 0, 1, 10% IN ACETONE (TOTAL DOSE 0.2 ML) 2/WK APPLIED TO DORSAL SKIN FOR DURATION OF STUDY (STUDY DURATION: 2 YR)): inactive; negative

CS(=O)(=O)OCCCCOS(C)(=O)=O
carcinogen call (Species: MOUSE, Route: INTRAVENOUS, Tumor Site: Type of Lesion: OVARIES, THYMUS GLAND): active; positive

CN(N=O)C(CCCO)c1cccnc1 (stereo not given)
carcinogen call (Species: MOUSE, Strain/Sex: STRAIN-A/FEMALE, Route: INTRAPERITONEAL, Dose: 0, 200 UMOL TOTAL DOSE ADMINISTERED IN SUBDOSES 3/WK FOR 7 WK (STUDY DURATION: 37 WK)): inactive; negative

O=[N+]([O-])c1ccc(Cl)cc1
carcinogen call (Species: MOUSE, Strain/Sex: CD-1/MALE,FEMALE, Route: ORAL, Tumor Site: Type of Lesion: BLOOD VESSELS): active; positive

O=[As](O)(O)O
carcinogen call (Species: MOUSE, Strain/Sex: SWISS/FEMALE, Route: INTRAVENOUS, Dose: 0, 0.5 MG/KG/WK FOR 20 WK (STUDY DURATION: 96 WK)): inactive; negative | carcinogen call (Species: MOUSE, Strain/Sex: SWISS/MALE, Route: INTRAVENOUS, Dose: 0, 0.5 MG/KG/WK FOR 20 WK (STUDY DURATION: 96 WK)): inactive; negative

Cc1cc2c3c(cccc3c1)-c1ccccc1-2
carcinogen call (Species: MOUSE, Strain/Sex: CD-1/FEMALE, Route: INTRAPERITONEAL, Dose: 0, 3.46, 17.3 UMOL (TOTAL DOSE) IN DMSO ADMINISTERED ON DAYS 1,8, AND 15 OF LIFE (STUDY DURATION: 52 WK), Dose: 0, 3.46, 17.3 UMOL (TOTAL DOSE) IN DMSO ADMINISTERED ON DAYS 1,8, AND 15 OF LIFE (STUDY DURATION: 52 WK), Tumor Site: Type of Lesion: LUNG: TUMORS, LIVER: TUMORS): active; positive | carcinogen call (Species: MOUSE, Strain/Sex: CD-1/MALE, Route: INTRAPERITONEAL, Dose: 0, 3.46, 17.3 UMOL (TOTAL DOSE) IN DMSO ADMINISTERED ON DAYS 1,8, AND 15 OF LIFE (STUDY DURATION: 52 WK), Dose: 0, 3.46, 17.3 UMOL (TOTAL DOSE) IN DMSO ADMINISTERED ON DAYS 1,8, AND 15 OF LIFE (STUDY DURATION: 52 WK), Tumor Site: Type of Lesion: LUNG: TUMORS, LIVER: TUMORS): active; positive
